Data as given in publication PMC12528448, “Resistance to CDK7 inhibitors directed by acquired mutation of a conserved residue in cancer cells” (The EMBO Journal, 2025).
Several values for one entry are separate records, joined by “and”; a condition that tells them apart may be missing. Equal entries are not always repeated.

Tests used:
Format in all cases: cell-based, human
[1] = test system: 22Rv1-SamR cells; assay: Growth assay (SRB), Samuraciclib-resistant 22Rv1; conditions: for % Growth: 22Rv1 SamR, 4 days, biological reps
Description: (§1) To determine the IC50 of drug treatments on growth, cells were seeded in 96-well culture plates. Two days after seeding, the cells were treated with increasing concentrations of drugs and incubated for 4 days. Cell number was determined using the SRB assay (Skehan et al, [1990]), and IC50 values were calculated using non-linear regression curve fitting in GraphPad Prism v10. For all other growth experiments, cells were seeded into 96-well plates, and appropriate drugs were added 2 days after seeding. Cells were then incubated in an IncuCyte Zoom live-cell imager, with cell confluency measured every 6 h. Cell doubling times were determined by non-linear curve fitting (exponential growth equation) in GraphPad Prism v10.

[2] = test system: MCF7-CDK7-D97N cells; assay: Growth assay (SRB), MCF7 CDK7-D97N knock-in; conditions: for % Growth: MCF7 CDK7 D99N, biological reps
Description: as §1
Alt-R^TM S.p. Cas9 nuclease V3, Alt-R CRISPR-Cas9 crRNA, TracrRNA and the donor templates were obtained from Integrated DNA Technologies. […] Cells were treated with 0.7 µM of Alt-R HDR Enhancer V2 to improve HRD efficiency. Sequences of the CRISPRs in the crRNA and the donor templates are shown in the Reagents and tools table. Donor templates were designed to include non-coding substitutions to aid genome DNA PCR for identifying knock-in events and to facilitate cloning; these substitutions are noted in the Reagents and tools table.

[3] = test system: 22Rv1 cells; assay: IncuCyte confluency growth, 22Rv1
Description: as §1

[4] = test system: 22Rv1-SamR cells; assay: IncuCyte confluency growth, 22Rv1-SamR; conditions: for % Confluency: 80nM SY1365, 22Rv1-SamR
Description: as §1

[5] = test system: 22Rv1 homozygous CDK7-D97N CL3 cells; assay: IncuCyte confluency growth, 22Rv1 homozygous CDK7-D97N CL3
Description: as §1

[6] = test system: PolII CTD Ser5 and CDK2 Thr160 phosphorylation in 22Rv1 cells; assay: Immunoblotting of CDK7 targets, 22Rv1
Description: Whole-cell lysates were prepared in RIPA buffer (Sigma-Aldrich), supplemented with protease and phosphatase inhibitor cocktails (Roche). Protein sample concentrations were determined using the Pierce BCA Protein Assay kit (ThermoFisher Scientific). […] PolII CTD phosphorylation antibodies (P-Ser2 (ab5095) and P-Ser5 (ab5131), used at 1:10,000 dilution), as well as total PolII (ab817; 1:2000 dilution) and β-actin (ab6276; 1:100,000 dilution) were purchased from Abcam.

[7] = 22Rv1, 5nM SY1365, Vehicle = 1.00
[8] = 22Rv1, 50nM SY1365, Vehicle = 1.00

`CN(C)C/C=C/C(=O)Nc1ccc(C(=O)N[C@@]2(C)CCC[C@@H](Nc3ncc(Cl)c(-c4c[nH]c5ccccc45)n3)C2)nc1` [SY-1365] was tested, and the “Sensitivity in growth assays” value ([1]; 22Rv1-SamR) was “remained sensitive”, the “Resistance (Fold), fold increase in IC50 of 22Rv1-SamR relative to 22Rv1” value ([1]; 22Rv1-SamR vs 22Rv1) was 1.0 fold and the “% Growth” value ([1]; Log10 Conc. (nM) 0.09) was 50.67% and 45.27%. The “% Growth” value ([1]; Log10 Conc. (nM) 0.69) was 34.60% and 27.89%, the “% Growth” value ([1]; Log10 Conc. (nM) 1.29) was 26.06% and 19.62% and the “% Growth” value ([1]; Log10 Conc. (nM) 1.89) was -2.71% and -9.74%. For the same compound, the “% Growth” value ([1]; Log10 Conc. (nM) 2.49) was -0.26% and -8.99%, the “% Growth” value ([1]; Log10 Conc. (nM) -0.52) was 81.58% and 73.70% and the “% Growth” value ([1]; Log10 Conc. (nM) -1.12) was 90.71% and 90.62%. The “Resistance (Fold)” value ([2]; MCF7-CDK7-D97N vs MCF7 WT) was 0.19 fold, the IC50 ([2]; MCF7-CDK7-D97N, 4 days, SRB) was 0.17 nM and the “% Growth” value ([2]; Log10 Conc. (nM) 3.70, 4 days) was -16.61%. The “% Growth” value ([2]; Log10 Conc. (nM) -1.12, 4 days) was 78.15% and 70.71% and 82.37% and 82.39%, the “% Growth” value ([2]; Log10 Conc. (nM) -1.72, 4 days) was 83.93% and 103.71% and 98.90% and the “% Confluency” value ([3]; 80nM SY1365, 22Rv1, 0 hours) was 11.42% and 19.49% and 18.80%. The “% Confluency” value ([3]; 80nM SY1365, 22Rv1, 6 hours) was 11.80% and 20.40% and 19.49%, the “% Confluency” value ([3]; 80nM SY1365, 22Rv1, 12 hours) was 10.21% and 17.43% and 16.82% and the “% Confluency” value ([3]; 80nM SY1365, 22Rv1, 18 hours) was 9.13% and 15.66% and 15.15%. The “% Confluency” value ([3]; 80nM SY1365, 22Rv1, 24 hours) was 8.54% and 14.77% and 14.37%, the “% Confluency” value ([3]; 80nM SY1365, 22Rv1, 30 hours) was 8.21% and 14.28% and 13.85% and the “% Confluency” value ([3]; 80nM SY1365, 22Rv1, 36 hours) was 8.00% and 13.79% and 13.42%. The “% Confluency” value ([3]; 80nM SY1365, 22Rv1, 42 hours) was 7.74% and 13.41% and 13.03%, the “% Confluency” value ([3]; 80nM SY1365, 22Rv1, 48 hours) was 7.60% and 13.19% and 12.71% and the “% Confluency” value ([3]; 80nM SY1365, 22Rv1, 54 hours) was 7.42% and 12.81% and 12.32%. For the same compound, the “% Confluency” value ([3]; 80nM SY1365, 22Rv1, 60 hours) was 7.30% and 12.50% and 12.14%, the “% Confluency” value ([3]; 80nM SY1365, 22Rv1, 66 hours) was 7.19% and 12.29% and 11.85% and the “% Confluency” value ([3]; 80nM SY1365, 22Rv1, 72 hours) was 7.07% and 12.06% and 11.63%. For the same compound, the “% Confluency” value ([3]; 80nM SY1365, 22Rv1, 78 hours) was 6.98% and 11.84% and 11.40%, the “% Confluency” value ([3]; 80nM SY1365, 22Rv1, 84 hours) was 6.88% and 11.65% and 11.26% and the “% Confluency” value ([3]; 80nM SY1365, 22Rv1, 90 hours) was 6.85% and 11.59% and 11.21%. For the same compound, the “% Confluency” value ([3]; 80nM SY1365, 22Rv1, 96 hours) was 6.73% and 11.35% and 10.98%, the “% Confluency” value ([3]; 80nM SY1365, 22Rv1, 114 hours) was 6.60% and 11.05% and 10.79% and the “% Confluency” value ([3]; 80nM SY1365, 22Rv1, 120 hours) was 6.58% and 10.92% and 10.70%. For the same compound, the “% Confluency” value ([3]; 80nM SY1365, 22Rv1, 126 hours) was 6.55% and 10.80% and 10.69%, the “% Confluency” value ([3]; 80nM SY1365, 22Rv1, 132 hours) was 6.55% and 10.73% and 10.58% and the “% Confluency” value ([3]; 80nM SY1365, 22Rv1, 138 hours) was 6.46% and 10.70% and 10.57%. For the same compound, the “% Confluency” value ([3]; 80nM SY1365, 22Rv1, 144 hours) was 6.45% and 10.59% and 10.48%, the “Growth inhibition over time” value ([3]; 22Rv1, IncuCyte confluency) was “potently growth inhibited” and the “% Confluency” value ([4]; 0 hours) was 10.34% and 15.03% and 14.87%. For the same compound, the “% Confluency” value ([4]; 6 hours) was 9.52% and 13.73% and 13.78%, the “% Confluency” value ([4]; 12 hours) was 7.18% and 10.14% and 10.08% and the “% Confluency” value ([4]; 18 hours) was 6.46% and 9.11% and 8.97%. For the same compound, the “% Confluency” value ([4]; 24 hours) was 6.42% and 8.94% and 8.84%, the “% Confluency” value ([4]; 30 hours) was 6.40% and 8.87% and 8.89% and the “% Confluency” value ([4]; 36 hours) was 6.41% and 8.74% and 8.80%. The “% Confluency” value ([4]; 42 hours) was 6.26% and 8.57% and 8.60%, the “% Confluency” value ([4]; 48 hours) was 6.09% and 8.40% and 8.37% and the “% Confluency” value ([4]; 54 hours) was 5.90% and 8.18% and 8.12%. For the same compound, the “% Confluency” value ([4]; 60 hours) was 5.76% and 7.96% and 7.93%, the “% Confluency” value ([4]; 66 hours) was 5.65% and 7.83% and 7.79% and the “% Confluency” value ([4]; 72 hours) was 5.56% and 7.64% and 7.59%. For the same compound, the “% Confluency” value ([4]; 78 hours) was 5.44% and 7.53%, the “% Confluency” value ([4]; 84 hours) was 5.34% and 7.42% and 7.40% and the “% Confluency” value ([4]; 90 hours) was 5.24% and 7.29% and 7.32%. The “% Confluency” value ([4]; 96 hours) was 5.21% and 7.20% and 7.25%, the “% Confluency” value ([4]; 114 hours) was 5.05% and 7.01% and 7.04% and the “% Confluency” value ([4]; 120 hours) was 5.01% and 6.93% and 6.98%. The “% Confluency” value ([4]; 126 hours) was 4.98% and 6.86% and 6.94%, the “% Confluency” value ([4]; 132 hours) was 4.95% and 6.82% and 6.86% and the “% Confluency” value ([4]; 138 hours) was 4.94% and 6.80% and 6.88%. The “% Confluency” value ([4]; 144 hours) was 4.87% and 6.78% and 6.83%, the “Growth inhibition over time” value ([4]; 22Rv1-SamR, IncuCyte confluency, samuraciclib at 1.35 µM) was “potently growth inhibited” and the “% Confluency” value ([5]; 80nM SY1365, CDK7D97N CL3, 0 hours) was 10.64% and 16.42% and 15.20%. The “% Confluency” value ([5]; 80nM SY1365, CDK7D97N CL3, 6 hours) was 12.17% and 18.19% and 16.81%, the “% Confluency” value ([5]; 80nM SY1365, CDK7D97N CL3, 12 hours) was 12.25% and 16.05% and 14.62% and the “% Confluency” value ([5]; 80nM SY1365, CDK7D97N CL3, 18 hours) was 11.21% and 14.01% and 12.61%. For the same compound, the “% Confluency” value ([5]; 80nM SY1365, CDK7D97N CL3, 24 hours) was 9.91% and 12.68% and 11.43%, the “% Confluency” value ([5]; 80nM SY1365, CDK7D97N CL3, 30 hours) was 9.03% and 11.88% and 10.71% and the “% Confluency” value ([5]; 80nM SY1365, CDK7D97N CL3, 36 hours) was 8.55% and 11.34% and 10.26%. The “% Confluency” value ([5]; 80nM SY1365, CDK7D97N CL3, 42 hours) was 8.35% and 11.02% and 9.94%, the “% Confluency” value ([5]; 80nM SY1365, CDK7D97N CL3, 48 hours) was 8.30% and 10.78% and 9.70% and the “% Confluency” value ([5]; 80nM SY1365, CDK7D97N CL3, 54 hours) was 8.19% and 10.49% and 9.48%. The “% Confluency” value ([5]; 80nM SY1365, CDK7D97N CL3, 60 hours) was 8.11% and 10.33% and 9.30%, the “% Confluency” value ([5]; 80nM SY1365, CDK7D97N CL3, 66 hours) was 8.06% and 10.08% and 9.17% and the “% Confluency” value ([5]; 80nM SY1365, CDK7D97N CL3, 72 hours) was 8.00% and 9.91% and 9.02%. For the same compound, the “% Confluency” value ([5]; 80nM SY1365, CDK7D97N CL3, 78 hours) was 7.89% and 9.76% and 8.94%, the “% Confluency” value ([5]; 80nM SY1365, CDK7D97N CL3, 84 hours) was 7.83% and 9.66% and 8.79% and the “% Confluency” value ([5]; 80nM SY1365, CDK7D97N CL3, 90 hours) was 7.73% and 9.55% and 8.72%. The “% Confluency” value ([5]; 80nM SY1365, CDK7D97N CL3, 96 hours) was 7.64% and 9.51% and 8.65%, the “% Confluency” value ([5]; 80nM SY1365, CDK7D97N CL3, 114 hours) was 7.42% and 9.25% and 8.52% and the “% Confluency” value ([5]; 80nM SY1365, CDK7D97N CL3, 120 hours) was 7.37% and 9.31% and 8.48%. For the same compound, the “% Confluency” value ([5]; 80nM SY1365, CDK7D97N CL3, 126 hours) was 7.26% and 9.19% and 8.45%, the “% Confluency” value ([5]; 80nM SY1365, CDK7D97N CL3, 132 hours) was 7.22% and 9.15% and 8.43% and the “% Confluency” value ([5]; 80nM SY1365, CDK7D97N CL3, 138 hours) was 7.16% and 9.12% and 8.33%. The “% Confluency” value ([5]; 80nM SY1365, CDK7D97N CL3, 144 hours) was 7.11% and 8.98% and 8.32%, the “Growth inhibition over time” value ([5]; 22Rv1 homozygous CDK7-D97N clone, IncuCyte confluency, samuraciclib at 1.35 µM) was “potently growth inhibited” and the “Relative Density P-Ser2” value [6, 7] was 1.04 and 0.55 and 0.68. For the same compound, the “Relative Density P-Ser5” value [6, 7] was 0.62 and 1.03, the “Relative Density ß-actin” value [6, 7] was 0.99 and 1.00 and the “Relative Density P-Ser5” value [6, 8] was 0.61 and 0.64 and 1.06. The “Relative Density ß-actin” value [6, 8] was 1.04 and 0.98 and 1.03.
